In ChEMBL document CHEMBL4765227, “Hit to lead optimization of a series of N-[4-(1,3-benzothiazol-2-yl)phenyl]acetamides as monoacylglycerol lipase inhibitors with potential anticancer activity” (Eur J Med Chem, 2016):

Key:
Format in all cases: functional
Conditions in all cases: read-out: GI
[1] = test system: Malme-3M; test: Growth inhibition of human Malme-3M cells at 10 uM incubated for 48 hrs by sulforhodamine B assay relative to control
[2] = test system: SNB-75; test: Growth inhibition of human SNB-75 cells at 10 uM incubated for 48 hrs by sulforhodamine B assay relative to control
[3] = test system: COLO 205; test: Growth inhibition of human COLO 205 cells at 10 uM incubated for 48 hrs by sulforhodamine B assay relative to control
[4] = test system: HCT-116; test: Growth inhibition of human HCT-116 cells at 10 uM incubated for 48 hrs by sulforhodamine B assay relative to control
[5] = test system: RXF 393; test: Growth inhibition of human RXF 393 cells at 10 uM incubated for 48 hrs by sulforhodamine B assay relative to control
[6] = test system: 786-0; test: Growth inhibition of human 786-0 cells at 10 uM incubated for 48 hrs by sulforhodamine B assay relative to control
[7] = test system: HOP-62; test: Growth inhibition of human HOP-62 cells at 10 uM incubated for 48 hrs by sulforhodamine B assay relative to control
[8] = test system: HCT-15; test: Growth inhibition of human HCT-15 cells at 10 uM incubated for 48 hrs by sulforhodamine B assay relative to control
[9] = test system: A549; test: Growth inhibition of human A549/ATCC cells at 10 uM incubated for 48 hrs by sulforhodamine B assay relative to control
[10] = test system: OVCAR-3; test: Growth inhibition of human OVCAR-3 cells at 10 uM incubated for 48 hrs by sulforhodamine B assay relative to control
[11] = test system: LOX IMVI; test: Growth inhibition of human LOX IMVI cells at 10 uM incubated for 48 hrs by sulforhodamine B assay relative to control
[12] = test system: OVCAR-4; test: Growth inhibition of human OVCAR-4 cells at 10 uM incubated for 48 hrs by sulforhodamine B assay relative to control
[13] = test system: PC-3; test: Growth inhibition of human PC-3 cells at 10 uM incubated for 48 hrs by sulforhodamine B assay relative to control
[14] = test system: SF-268; test: Growth inhibition of human SF-268 cells at 10 uM incubated for 48 hrs by sulforhodamine B assay relative to control
[15] = test system: M14; test: Growth inhibition of human M14 cells at 10 uM incubated for 48 hrs by sulforhodamine B assay relative to control
[16] = test system: RPMI-8226; test: Growth inhibition of human RPMI-8226 cells at 10 uM incubated for 48 hrs by sulforhodamine B assay relative to control
[17] = test system: KM12; test: Growth inhibition of human KM12 cells at 10 uM incubated for 48 hrs by sulforhodamine B assay relative to control
[18] = test system: NCI/ADR-RES; test: Growth inhibition of human NCI/ADR-RES cells at 10 uM incubated for 48 hrs by sulforhodamine B assay relative to control
[19] = test system: NCI-H226; test: Growth inhibition of human NCI-H226 cells at 10 uM incubated for 48 hrs by sulforhodamine B assay relative to control
[20] = test system: HL-60(TB); test: Growth inhibition of human HL-60(TB) cells at 10 uM incubated for 48 hrs by sulforhodamine B assay relative to control
[21] = test system: ACHN; test: Growth inhibition of human ACHN cells at 10 uM incubated for 48 hrs by sulforhodamine B assay relative to control
[22] = test system: SN12C; test: Growth inhibition of human SN12C cells at 10 uM incubated for 48 hrs by sulforhodamine B assay relative to control
[23] = test system: UO-31; test: Growth inhibition of human UO-31 cells at 10 uM incubated for 48 hrs by sulforhodamine B assay relative to control
[24] = test system: UACC-257; test: Growth inhibition of human UACC-257 cells at 10 uM incubated for 48 hrs by sulforhodamine B assay relative to control
[25] = test system: HCC 2998; test: Growth inhibition of human HCC 2998 cells at 10 uM incubated for 48 hrs by sulforhodamine B assay relative to control
[26] = test system: SR; test: Growth inhibition of human SR cells at 10 uM incubated for 48 hrs by sulforhodamine B assay relative to control
[27] = test system: U-251; test: Growth inhibition of human U-251 cells at 10 uM incubated for 48 hrs by sulforhodamine B assay relative to control
[28] = test system: DU-145; test: Growth inhibition of human DU-145 cells at 10 uM incubated for 48 hrs by sulforhodamine B assay relative to control
[29] = test system: SF-539; test: Growth inhibition of human SF-539 cells at 10 uM incubated for 48 hrs by sulforhodamine B assay relative to control
[30] = test system: HOP-92; test: Growth inhibition of human HOP-92 cells at 10 uM incubated for 48 hrs by sulforhodamine B assay relative to control
[31] = test system: MDA-MB-468; test: Growth inhibition of human MDA-MB-468 cells at 10 uM incubated for 48 hrs by sulforhodamine B assay relative to control
[32] = test system: MOLT-4; test: Growth inhibition of human MOLT-4 cells at 10 uM incubated for 48 hrs by sulforhodamine B assay relative to control
[33] = test system: MDA-MB-231; test: Growth inhibition of human MDA-MB-231 cells at 10 uM incubated for 48 hrs by sulforhodamine B assay relative to control
[34] = test system: CAKI-1; test: Growth inhibition of human CAKI-1 cells at 10 uM incubated for 48 hrs by sulforhodamine B assay relative to control
[35] = test system: OVCAR-5; test: Growth inhibition of human OVCAR-5 cells at 10 uM incubated for 48 hrs by sulforhodamine B assay relative to control
[36] = test system: SF-295; test: Growth inhibition of human SF-295 cells at 10 uM incubated for 48 hrs by sulforhodamine B assay relative to control
[37] = test system: NCI-H322M; test: Growth inhibition of human NCI-H322M cells at 10 uM incubated for 48 hrs by sulforhodamine B assay relative to control
[38] = test system: NCI-H23; test: Growth inhibition of human NCI-H23 cells at 10 uM incubated for 48 hrs by sulforhodamine B assay relative to control
[39] = test system: Hs-578T; test: Growth inhibition of human Hs-578T cells at 10 uM incubated for 48 hrs by sulforhodamine B assay relative to control
[40] = test system: HT-29; test: Growth inhibition of human HT-29 cells at 10 uM incubated for 48 hrs by sulforhodamine B assay relative to control
[41] = test system: OVCAR-8; test: Growth inhibition of human OVCAR-8 cells at 10 uM incubated for 48 hrs by sulforhodamine B assay relative to control
[42] = test system: NCI-H522; test: Growth inhibition of human NCI-H522 cells at 10 uM incubated for 48 hrs by sulforhodamine B assay relative to control
[43] = test system: MCF7; test: Growth inhibition of human MCF7 cells at 10 uM incubated for 48 hrs by sulforhodamine B assay relative to control
[44] = test system: SW-620; test: Growth inhibition of human SW-620 cells at 10 uM incubated for 48 hrs by sulforhodamine B assay relative to control

O=C(Cn1ccc2ccccc21)Nc1ccc(-c2nc3ccccc3s2)cc1
inhibition of growth at 10 µM [1]: -8.06%
inhibition of growth at 10 µM [2]: 6.21%
inhibition of growth at 10 µM [3]: -0.82%
inhibition of growth at 10 µM [4]: -1.55%
inhibition of growth at 10 µM [5]: -12.6%
inhibition of growth at 10 µM [6]: -3.1%
inhibition of growth at 10 µM [7]: -3.42%
inhibition of growth at 10 µM [8]: -10.2%
inhibition of growth at 10 µM [9]: 1.71%
inhibition of growth at 10 µM [10]: -2.19%
inhibition of growth at 10 µM [11]: 8.68%
inhibition of growth at 10 µM [12]: -2.92%
inhibition of growth at 10 µM [13]: 2.02%
inhibition of growth at 10 µM [14]: 3.37%
inhibition of growth at 10 µM [15]: -8.41%
inhibition of growth at 10 µM [16]: 0%
inhibition of growth at 10 µM [17]: -6.39%
inhibition of growth at 10 µM [18]: -0.33%
inhibition of growth at 10 µM [19]: -2.24%
inhibition of growth at 10 µM [20]: 0.1%
inhibition of growth at 10 µM [21]: -10.9%
inhibition of growth at 10 µM [22]: -1.09%
inhibition of growth at 10 µM [23]: 7.58%
inhibition of growth at 10 µM [24]: -0.08%
inhibition of growth at 10 µM [25]: -3.48%
inhibition of growth at 10 µM [26]: 4.51%
inhibition of growth at 10 µM [27]: 2.41%
inhibition of growth at 10 µM [28]: -0.67%
inhibition of growth at 10 µM [29]: -2.36%
inhibition of growth at 10 µM [30]: -4.8%
inhibition of growth at 10 µM [31]: 150%
inhibition of growth at 10 µM [32]: 5.48%
inhibition of growth at 10 µM [33]: -7.77%
inhibition of growth at 10 µM [34]: -0.29%
inhibition of growth at 10 µM [35]: -3.94%
inhibition of growth at 10 µM [36]: -3.08%
inhibition of growth at 10 µM [37]: 1.19%
inhibition of growth at 10 µM [38]: 5.98%
inhibition of growth at 10 µM [39]: 2.29%
inhibition of growth at 10 µM [40]: -14.7%
inhibition of growth at 10 µM [41]: -4.73%
inhibition of growth at 10 µM [42]: -1.58%
inhibition of growth at 10 µM [43]: 61.8%
inhibition of growth at 10 µM [44]: -6.47%

O=C(Cn1cncn1)Nc1ccc(-c2nc3ccccc3s2)cc1
inhibition of growth at 10 µM [1]: -0.27%
inhibition of growth at 10 µM [2]: 7.87%
inhibition of growth at 10 µM [3]: -6.86%
inhibition of growth at 10 µM [4]: 4.58%
inhibition of growth at 10 µM [5]: -25.3%
inhibition of growth at 10 µM [6]: 4.38%
inhibition of growth at 10 µM [7]: -2.28%
inhibition of growth at 10 µM [8]: -1.4%
inhibition of growth at 10 µM [9]: 11.9%
inhibition of growth at 10 µM [10]: 8.95%
inhibition of growth at 10 µM [11]: 0.66%
inhibition of growth at 10 µM [12]: 19.4%
inhibition of growth at 10 µM [13]: 14.2%
inhibition of growth at 10 µM [14]: 2.87%
inhibition of growth at 10 µM [15]: -11.2%
inhibition of growth at 10 µM [16]: 16.8%
inhibition of growth at 10 µM [17]: 1.84%
inhibition of growth at 10 µM [18]: -1.6%
inhibition of growth at 10 µM [19]: 25%
inhibition of growth at 10 µM [20]: -2.11%
inhibition of growth at 10 µM [21]: -10.5%
inhibition of growth at 10 µM [22]: 4.85%
inhibition of growth at 10 µM [23]: 23.1%
inhibition of growth at 10 µM [24]: -2.17%
inhibition of growth at 10 µM [25]: 6.06%
inhibition of growth at 10 µM [26]: 16.2%
inhibition of growth at 10 µM [27]: 10%
inhibition of growth at 10 µM [28]: 5.46%
inhibition of growth at 10 µM [29]: -7.74%
inhibition of growth at 10 µM [30]: 6.49%
inhibition of growth at 10 µM [31]: 130%
inhibition of growth at 10 µM [32]: 8.15%
inhibition of growth at 10 µM [33]: 3.55%
inhibition of growth at 10 µM [34]: 6.2%
inhibition of growth at 10 µM [35]: -15%
inhibition of growth at 10 µM [36]: 8.06%
inhibition of growth at 10 µM [37]: -0.63%
inhibition of growth at 10 µM [38]: 12.5%
inhibition of growth at 10 µM [39]: -3.42%
inhibition of growth at 10 µM [40]: -4.68%
inhibition of growth at 10 µM [41]: 5.43%
inhibition of growth at 10 µM [42]: 12.5%
inhibition of growth at 10 µM [43]: 63.9%
inhibition of growth at 10 µM [44]: -6.34%
